{"source": "patent US20220323379A1", "about": "“P62 LIGAND COMPOUND AND ER-PHAGY-PROMOTING USE THEREOF” (PROTECH, INC., priority 2019, published 2022)", "key": {"[1]": {"biological_target": "T1, p62 (Homo sapiens, UniProt Q13501)", "T1 construct": "PCR amplification of a full-length human p62 cDNA fragment; expressed in transfected cells; unpurified lysate supernatant", "experiment": "In vitro p62 oligomerization assay", "format": "biochemical", "details": "2 h; for oligomerization and aggregation of p62: p62-ZZ ligands 1 mM, p62-myc/his cell lysate, FIG. 5B; for p62 oligomerization: dipeptide 50 mM, FIG. 2B", "procedure": "FIG. 2B illustrates the in vitro p62 oligomerization assay results in HEK293T cells cultured with Arg-Ala or Ala-Arg dipeptide (50 mM, 2 hours),\nFIG. 5B illustrates the in vitro p62 oligomerization assay results in HEK293T cells incubated with the p62-ZZ ligands (1 mM, 2 h) illustrated in FIG. 5A,\nHEK293 cells were transiently transfected with a plasmid encoding p62-myc/his fusion proteins (Reference Example 2), resuspended in a lysis buffer [50 mM Hepes (pH 7.4), 0.15 M KCl, 0.1% Nonidet P-40), 10% glycerol, and a mixture of protease inhibitors and phosphatase inhibitor (Abcam)] and lysed by 10 cycles of freezing and thawing, followed by centrifugation at 13,000×g for 20 min at 4° C. The protein concentration in the supernatant was determined using a BCA assay (Thermo Fisher Scientific). A total of 1 μg of protein was mixed with 50 mM of the Arg-Ala or Ala-Arg dipeptide (Anygen) or 1000 μM of p62-ZZ ligands in the presence of 100 μM bestatin (Enzo) at room temperature for 2 h. Next, a non-reducing 4×LDS sample buffer was added to each sample, heated at 95° C. for 10 min, and resolved using 4-20% gradient SDS-PAGE (Bio-Rad). Immunoblotting analysis was carried out to monitor the conversion of p62 monomers into oligomers or aggregates using an anti-myc antibody."}, "[2]": {"system": "HeLa cells", "experiment": "Immunocytochemistry co-localization analysis of ER markers (calnexin, KDEL) with p62 and LC3", "format": "cell-based, human", "details": "tannic acid 30 μM 24 h, HCQ 10 μM 24 h", "procedure": "FIG. 2C is a fluorescence image illustrating the co-localization analysis results of p62 and calnexin in HeLa cells treated with HCQ (10 μM, 24 h), tannic acid (30 μM, 24 h) or both (scale bar, 10 μm),\nFIG. 2E is a fluorescence image illustrating the co-localization analysis results of KDEL and LC3 in HeLa cells treated with HCQ (10 μM, 24 h), tannic acid (30 μM, 24 h) or both (scale bar, 10 μm),\nFIG. 5C is a fluorescence image illustrating the co-localization analysis results of calnexin, p62 and LC3-GFP puncta structures in HeLa cells transfected with LC3-GFP and treated with YTK1105 (2.5 μM, 9 h) (scale bar, 10 μm),\nFIG. 11E illustrates the co-localization analysis results of p62, KDEL and LC3-GFP in HeLa cells transiently transfected with LC3-GFP and treated with YTK1105 (2.5 μM, 5 h) (scale bar, 10 μm), […]\nTo observe cellular localization of proteins, cells were cultured on cover slips coated with poly-L-lysine (Sigma). […] Confocal images were taken by a laser scanning confocal microscope 510 Meta (Zeiss) and analyzed by Zeiss LSM Image Browser (ver. 4.2.0.121).\nQuantification results are expressed as the mean+/−S.D. value of three independent test results. […] The P-values were determined using ANOVA with two-tailed student's t-test (degree of freedom=n−1) or Prism 6 software (GraphPad). The statistical significance was determined as values of p<0.05 (***p<0.001; **p<0.01; *p<0.05)."}, "[3]": {"system": "HeLa cells", "experiment": "ER expansion visualization by KDEL immunostaining", "format": "cell-based, human", "details": "tannic acid 30 μM 24 h with YTK1105 2.5 μM 5 h or rapamycin 2 μM 18 h, FIGS. 5H, 5I", "procedure": "FIG. 5H illustrates the immunostaining results of KDEL signals in HeLa cells treated with or without tannic acid (30 μM, 24 h) and with YTK1105 (2.5 μM, 5 h) or rapamycin (2 μM, 18 h) (scale bar, 10 μm),\nTo observe cellular localization of proteins, cells were cultured on cover slips coated with poly-L-lysine (Sigma). The cells were fixed with 4% paraformaldehyde in PBS (pH 7.4) for 15 min at room temperature and washed three times with PBS for 5 min. The cells were permeabilized with 0.5% Triton X-100 in PBS solution for 15 min and washed three times with PBS for 5 min. The cells were blocked with 2% BSA in PBS solution for 1 h at room temperature. After blocking, the cells were incubated overnight at 4° C. with a primary antibody diluted in 2% BSA/PBS solution. […] Confocal images were taken by a laser scanning confocal microscope 510 Meta (Zeiss) and analyzed by Zeiss LSM Image Browser (ver. 4.2.0.121).\nUsing confocal microscopy of cells analyzed by immunocytochemistry, ER expansion was visualized by considered when KDEL- or calnexin-labelled ER occupied more than 80% of cell area. Furthermore, the ER area was calculated by ImageJ (NIH, Bethesda, v1.52) and the background threshold was manually defined and set for all images. The ER area was calculated and marked from the total cell area as a fraction after borders of each cell were set."}, "[4]": {"biological_target": "T2, TRIM13-p62 complex (Homo sapiens, UniProt Q13501)", "T2 construct": "PCR amplification of a full-length human p62 cDNA fragment; expressed in transfected cells; host or cells: HEK293T", "experiment": "Co-IP with autophagy flux analysis using TRIM13 pulldown", "format": "cell-based", "details": "HEK293T p62-myc + TRIM13-flag, tannic acid 30 μM 24 h, FIG. 4I", "procedure": "FIG. 4I illustrates the Co-IP assay results in HEK293T cells treated with HCQ (10 μM, 24 h), tannic acid (30 μM, 24 h), or both, and co-transfected (24 h) with p62-myc and TRIM13-flag,\nFIG. 5K illustrates the Co-IP assay results in HEK293T cells co-transfected with p62-myc and TRIM13-flag (24 h) or transfected with negative control empty vector (EV) and treated with HCQ (10 μM, 24 h), YOK1104 (2.5 μM, 4 h), or both, and\nTo test protein interaction, co-immunoprecipitation assays were performed. For exogenous co-IP, HEK293T cells were transfected with recombinant p62, BiP, TRIM13, reticulophagy regulator 1 (FAM134B), reticulon 3 (RTN3) or ATZ (Z variant E342K) using Lipofectamine 2000. The cell pellets were scraped and pelleted by centrifugation, resuspended and lysed in an immunoprecipitation buffer (IP buffer) [50 mM Tris-HCl pH 7.5, 150 mM NaCl, 0.5% Triton X-100, 1 mM EDTA, 1 mM phenylmethylsulfonyl fluoride (PMSF; Roche) and protease inhibitor cocktail (Sigma)] on a rotor at 4° C. for 30 min. Next, the supernatant and remaining pellets were passed through a 26-gauge 1 mL syringe 15 times and centrifuged at 13,000 g at 4° C. and collected for the supernatant, to which normal mouse IgG (Santa Cruz) and Protein A/G-Plus agarose beads (Santa Cruz) were added to preclear the lysate on a rotor at 4° C. overnight. The cell lysate was then incubated with M2 FLAG-affinity Gel agarose beads (Sigma) on a rotor at 4° C. for 3 h. The gel beads were washed four times with IP buffer, resuspended in 2× Laemmli Sample Buffer, separated by SDS-PAGE and analyzed by immunoblotting with specified antibodies."}, "[5]": {"system": "TRIM13", "experiment": "In vivo oligomerization assay of TRIM13-flag (non-reducing SDS-PAGE)", "format": "cell-based, human", "details": "HEK293T TRIM13-flag, tannic acid 30 μM 24 h, HCQ 10 μM 24 h; FIGS. 4H, 9L", "procedure": "FIG. 4H illustrates the in vivo oligomerization assay results of TRIM13-flag in HEK293T cells treated with HCQ (10 μM, 24 h), tannic acid (30 μM, 24 h), or both,\nFIG. 5L illustrates the In vivo oligomerization assay results of TRIM13-flag in HEK293T cells treated with MG132 (2 μM, 24 h) and with or without YOK1104 (2.5 μM, 4 h).\nHEK293T cells were transfected with TRIM13-flag using Lipofectamine 2000 and treated with hydroxychloroquine (Sigma) for 24 h. To lyse the cells, the cells were subjected to a cycle of freezing/thawing and centrifuged at 13,000 g for 10 min after 30 min incubation on ice for supernatant collection. Protein concentration was measured using the Pierce BCA Protein Assay Kit (Thermo Fisher Scientific). Next, a non-reducing 4×LDS sample buffer was added to the sample lysate and followed by boiling at 100° C. for 10 min. The samples were loaded on a 3% stacking and 8% separating SDS-PAGE. Immunoblotting assays were performed using an anti-Flag antibody (Sigma) to visualize the oligomeric complexes of TRIM13."}, "[6]": {"system": "TRIM13", "experiment": "Immunoblotting of ER protein in tannic acid-treated cells", "format": "cell-based, human", "details": "HeLa, tannic acid 30 μM 24 h; FIG. 8E", "procedure": "FIG. 8E illustrates the immunoblotting results of ER protein in HeLa cells treated with tannic acid (30 μM, 24 h),\nCell pellets were washed with phosphate-buffered saline (PBS) and lysed in an SDS-based sample buffer (277.8 mM Tris-HCl, pH 6.8, 4.4% LDS, 44.4% (v/v) glycerol) with beta-mercaptoethanol. Alternatively, cell pellets or protein supernatants were lysed in a 5× Laemmli sample buffer (SDS-based sample buffer). Using SDS-PAGE, whole cell lysates were separated and transferred onto polyvinylidene difluoride membranes at 100 V for 2 h at 4° C. Subsequently, the membrane was blocked with 4% skim milk in PBS solution for 30 min at room temperature and incubated overnight with primary antibodies (see Reference Example 4), followed by incubation with host-specific HRP-conjugated secondary antibodies (Jackson laboratory) (1:10000 dilution). For signal detection, a mixture of ECL solution (Thermo Fisher Scientific) was applied onto the membrane and captured using X-ray films."}}, "data": [{"compound": "COC(=O)CNC[C@@H](O)COc1ccc(OCc2ccccc2)c(OCc2ccccc2)c1", "note": "[YOK-G-1104, methyl (R)-(3-(3,4-bis(benzyloxy)phenoxy)-2-hydroxypropyl)glycinate]", "values": [{"measurement": "oligomerization and aggregation of p62", "setting": "[1]", "result": "negative controls"}]}, {"compound": "O=Cc1ccc(OCc2ccccc2)c(OCc2ccccc2)c1", "note": "[compound 1101, 3,4-bis(benzyloxy)benzaldehyde]", "values": [{"measurement": "oligomerization and aggregation of p62", "setting": "[1]", "result": "negative controls"}]}, {"compound": "O=C(OC[C@H]1O[C@@H](OC(=O)c2cc(O)c(O)c(OC(=O)c3cc(O)c(O)c(O)c3)c2)[C@H](OC(=O)c2cc(O)c(O)c(OC(=O)c3cc(O)c(O)c(O)c3)c2)[C@@H](OC(=O)c2cc(O)c(O)c(OC(=O)c3cc(O)c(O)c(O)c3)c2)[C@@H]1OC(=O)c1cc(O)c(O)c(OC(=O)c2cc(O)c(O)c(O)c2)c1)c1cc(O)c(O)c(OC(=O)c2cc(O)c(O)c(O)c2)c1", "note": "[tannic acid]", "values": [{"measurement": "localization of p62 puncta to calnexin signals (targeting of p62 to the ER)", "setting": "[2]; FIGS. 2C, 2D", "result": "p62 punctate signals were delocalized from calnexin signals"}, {"measurement": "autophagic targeting of KDEL+ proteins (KDEL-LC3 co-localization)", "setting": "[2]; FIGS. 2E, 2F", "result": "abolished"}, {"measurement": "ER morphology (swelling), KDEL signals", "setting": "[3]", "result": "the ER spontaneously swelled into abnormal morphology"}, {"measurement": "turnover of TRIM13 and its complex with p62", "setting": "[4]; HCQ 10 μM 24 h", "result": "became metabolically stabilized"}, {"measurement": "binding of p62 to TRIM13", "setting": "[4]", "result": "p62 normally bound to TRIM13"}, {"measurement": "oligomeric status of TRIM13", "setting": "[5]", "result": "TRIM13 lost its oligomeric status, leading to the uncontrolled formation of aggregates"}, {"measurement": "TRIM13 protein level (autophagic degradation)", "setting": "[6]", "result": "stabilized"}]}, {"compound": "Ala-Arg", "values": [{"measurement": "p62 oligomerization", "setting": "[1]", "result": "did not induce p62 oligomerization"}]}, {"compound": "Arg-Ala", "values": [{"measurement": "p62 oligomerization", "setting": "[1]", "result": "induced p62 oligomerization"}]}]}
